One block for each compound: values may come before it. Calls of active or inactive are those of the source.
What was measured:
[1] = biological target: T1, Histone-lysine N-methyltransferase NSD2 (Homo sapiens, UniProt O96028); assay type: biochemical
T1 sequence (O96028 whole entry): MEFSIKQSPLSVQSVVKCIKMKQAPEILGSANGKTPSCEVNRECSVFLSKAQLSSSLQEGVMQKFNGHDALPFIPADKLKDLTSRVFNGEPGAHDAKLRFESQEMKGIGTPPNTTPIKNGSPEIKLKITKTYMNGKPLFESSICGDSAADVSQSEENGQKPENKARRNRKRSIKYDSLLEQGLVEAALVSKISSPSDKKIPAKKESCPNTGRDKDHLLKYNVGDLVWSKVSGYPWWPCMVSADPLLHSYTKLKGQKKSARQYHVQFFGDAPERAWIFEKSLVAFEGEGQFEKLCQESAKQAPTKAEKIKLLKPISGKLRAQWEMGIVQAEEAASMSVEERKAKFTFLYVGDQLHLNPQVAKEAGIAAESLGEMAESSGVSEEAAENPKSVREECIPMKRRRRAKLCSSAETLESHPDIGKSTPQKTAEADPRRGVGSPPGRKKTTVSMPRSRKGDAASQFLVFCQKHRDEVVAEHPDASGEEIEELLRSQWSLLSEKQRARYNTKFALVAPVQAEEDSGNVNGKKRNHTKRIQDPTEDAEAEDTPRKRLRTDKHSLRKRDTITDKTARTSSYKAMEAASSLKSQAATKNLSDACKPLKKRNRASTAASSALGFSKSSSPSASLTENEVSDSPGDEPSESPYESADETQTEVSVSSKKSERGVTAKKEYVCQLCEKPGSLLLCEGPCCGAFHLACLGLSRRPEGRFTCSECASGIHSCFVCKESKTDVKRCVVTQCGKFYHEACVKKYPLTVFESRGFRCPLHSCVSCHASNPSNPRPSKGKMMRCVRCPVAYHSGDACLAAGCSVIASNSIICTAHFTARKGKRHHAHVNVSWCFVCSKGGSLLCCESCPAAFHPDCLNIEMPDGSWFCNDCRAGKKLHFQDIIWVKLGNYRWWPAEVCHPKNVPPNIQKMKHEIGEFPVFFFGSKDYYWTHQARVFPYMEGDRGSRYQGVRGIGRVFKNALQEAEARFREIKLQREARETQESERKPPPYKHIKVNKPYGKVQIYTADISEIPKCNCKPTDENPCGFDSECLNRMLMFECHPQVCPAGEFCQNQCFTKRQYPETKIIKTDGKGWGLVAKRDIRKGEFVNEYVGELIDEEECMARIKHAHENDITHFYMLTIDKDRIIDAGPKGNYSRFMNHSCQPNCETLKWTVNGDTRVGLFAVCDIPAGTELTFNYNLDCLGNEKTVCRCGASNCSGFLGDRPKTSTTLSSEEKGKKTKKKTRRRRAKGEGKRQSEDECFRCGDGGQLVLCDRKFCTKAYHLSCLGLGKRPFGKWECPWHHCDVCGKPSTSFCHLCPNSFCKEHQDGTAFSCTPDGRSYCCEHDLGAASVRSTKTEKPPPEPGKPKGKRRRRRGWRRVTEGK

[2] = biological target: Caspase-7 (Homo sapiens, UniProt P55210); assay: human caspase-7 inhibitors, dose response, selectivity assay for caspase-6 inhibitor project, biochemical, DEVD-R110 fluorescence, cherry-pick (AID 743295)
[3] = tested on: HeLa; assay: HeLa cell cytotoxicity, dose response, cytotoxicity control, 24 h, cherry-picked samples (AID 504726); assay type: functional, cell-based; settings: Homo sapiens;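 also: potency for cytotoxicity as loss of luminescence signal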
[4] = tested on: HEK293; assay: optical interference in Abeta FP readout, dose response, artefact control for IDE activator project, biochemical, fluorescence polarization (AID 588442); assay type: functional, cell-based; settings: Homo sapiens
[5] = biological target: Ribosomal protein S6 kinase alpha-3 (Homo sapiens, UniProt P51812); assay type: functional;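 also: measured within a kinome-wide profiling panel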
[6] = biological target: Cell division cycle 7-related protein kinase (Homo sapiens, UniProt O00311); assay type: functional;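 also: value obtained from a kinome-wide kinase panel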
[7] = biological target: Casein kinase II subunit alpha (Homo sapiens, UniProt P68400); assay type: functional
[8] = biological target: Serine/threonine-protein kinase PLK3 (Homo sapiens, UniProt Q9H4B4); assay type: functional
[9] = biological target: Cyclin-dependent kinase 2 (Homo sapiens, UniProt P24941); assay type: functional;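 also: CDK2 measured as one member of a broad kinome profiling panel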
[10] = biological target: Casein kinase I isoform delta (Homo sapiens, UniProt P48730); assay type: functional;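 also: measured as one member (CSNK1D) of a kinome panel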
[11] = biological target: Proto-oncogene tyrosine-protein kinase Src (Homo sapiens, UniProt P12931); assay type: functional;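 also: SRC entry within a kinome-wide kinase profiling panel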
[12] = biological target: MAP kinase-activated protein kinase 2 (Homo sapiens, UniProt P49137); assay type: functional;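 also: measured as one member of a kinome-wide kinase panel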
[13] = biological target: Protein kinase C gamma type (Homo sapiens, UniProt P05129); assay type: functional
[14] = biological target: Homeodomain-interacting protein kinase 4 (Homo sapiens, UniProt Q8NE63); assay type: functional
[15] = biological target: Tyrosine-protein kinase Blk (Homo sapiens, UniProt P51451); assay type: functional;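 also: obtained as one member of a kinome-wide kinase assay panel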
[16] = biological target: Serine/threonine-protein kinase pim-3 (Homo sapiens, UniProt Q86V86); assay type: functional;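 also: value obtained as one member of a broad kinase panel profiling effort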
[17] = biological target: Calcium/calmodulin-dependent protein kinase type 1 (Homo sapiens, UniProt Q14012); assay type: functional
[18] = biological target: Calcium/calmodulin-dependent protein kinase type II subunit delta (Homo sapiens, UniProt Q13557); assay type: functional
[19] = biological target: RAC-gamma serine/threonine-protein kinase (Homo sapiens, UniProt Q9Y243); assay type: functional
[20] = biological target: STE20-like serine/threonine-protein kinase (Homo sapiens, UniProt Q9H2G2); assay type: functional
[21] = biological target: Mitogen-activated protein kinase kinase kinase kinase 5 (Homo sapiens, UniProt Q9Y4K4); assay type: functional;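 also: measured as one member of a kinome-spanning kinase panel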
[22] = biological target: Receptor tyrosine-protein kinase erbB-2 (Homo sapiens, UniProt P04626); assay: Navigating the Kinome. Panel member name: ERBB2; assay type: functional
[23] = biological target: Cyclin-dependent kinase 1 (Homo sapiens, UniProt P06493); assay type: functional;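 also: Kinome-wide panel profiling, with the target listed as panel member CDC2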
[24] = biological target: Inhibitor of nuclear factor kappa-B kinase subunit epsilon (Homo sapiens, UniProt Q14164); assay: Navigating the Kinome. Panel member name: IKBKE; assay type: functional

Chain of Cell division cycle 7-related protein kinase (O00311 whole entry): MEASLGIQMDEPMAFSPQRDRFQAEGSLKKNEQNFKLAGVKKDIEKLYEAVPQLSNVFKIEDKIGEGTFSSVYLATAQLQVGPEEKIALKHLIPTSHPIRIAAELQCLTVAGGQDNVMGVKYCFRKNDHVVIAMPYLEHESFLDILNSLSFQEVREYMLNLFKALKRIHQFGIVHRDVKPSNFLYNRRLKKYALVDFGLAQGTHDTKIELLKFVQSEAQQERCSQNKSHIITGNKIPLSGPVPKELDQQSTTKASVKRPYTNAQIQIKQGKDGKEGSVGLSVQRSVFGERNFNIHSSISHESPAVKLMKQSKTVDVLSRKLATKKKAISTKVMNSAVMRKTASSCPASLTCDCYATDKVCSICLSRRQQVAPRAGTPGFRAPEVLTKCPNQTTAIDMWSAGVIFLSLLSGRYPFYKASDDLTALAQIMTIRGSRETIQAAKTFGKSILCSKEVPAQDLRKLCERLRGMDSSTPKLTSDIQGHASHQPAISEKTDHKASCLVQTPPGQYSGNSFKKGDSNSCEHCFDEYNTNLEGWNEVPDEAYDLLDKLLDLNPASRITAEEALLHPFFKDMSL
Chain of Casein kinase I isoform delta (P48730 whole entry, canonical isoform): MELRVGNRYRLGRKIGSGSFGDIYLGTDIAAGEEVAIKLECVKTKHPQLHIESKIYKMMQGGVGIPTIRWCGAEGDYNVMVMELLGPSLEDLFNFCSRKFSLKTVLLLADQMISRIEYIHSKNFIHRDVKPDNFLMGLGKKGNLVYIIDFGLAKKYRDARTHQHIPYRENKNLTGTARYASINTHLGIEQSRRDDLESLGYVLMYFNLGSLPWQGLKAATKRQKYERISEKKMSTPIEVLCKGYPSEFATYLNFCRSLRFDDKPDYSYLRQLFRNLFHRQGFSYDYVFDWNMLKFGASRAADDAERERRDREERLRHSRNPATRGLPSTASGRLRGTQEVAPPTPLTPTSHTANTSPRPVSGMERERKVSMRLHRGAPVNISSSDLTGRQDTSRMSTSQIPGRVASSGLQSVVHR
Chain of Homeodomain-interacting protein kinase 4 (Q8NE63 whole entry): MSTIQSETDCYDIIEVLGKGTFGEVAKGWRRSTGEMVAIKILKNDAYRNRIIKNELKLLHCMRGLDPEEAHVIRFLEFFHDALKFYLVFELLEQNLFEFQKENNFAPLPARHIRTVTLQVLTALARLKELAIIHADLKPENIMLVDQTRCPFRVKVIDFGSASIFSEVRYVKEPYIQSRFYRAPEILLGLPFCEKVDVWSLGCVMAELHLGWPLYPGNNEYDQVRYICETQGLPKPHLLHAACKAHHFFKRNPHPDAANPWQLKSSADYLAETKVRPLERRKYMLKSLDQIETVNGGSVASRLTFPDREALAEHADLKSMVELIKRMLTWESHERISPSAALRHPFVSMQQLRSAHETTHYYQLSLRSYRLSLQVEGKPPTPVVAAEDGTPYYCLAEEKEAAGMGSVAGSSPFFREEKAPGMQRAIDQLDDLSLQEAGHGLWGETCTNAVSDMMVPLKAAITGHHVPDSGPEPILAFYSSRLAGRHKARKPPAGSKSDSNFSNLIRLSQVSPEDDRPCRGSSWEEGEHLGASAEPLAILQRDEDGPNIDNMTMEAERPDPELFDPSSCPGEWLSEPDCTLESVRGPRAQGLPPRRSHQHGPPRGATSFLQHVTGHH
Chain of MAP kinase-activated protein kinase 2 (P49137 whole entry): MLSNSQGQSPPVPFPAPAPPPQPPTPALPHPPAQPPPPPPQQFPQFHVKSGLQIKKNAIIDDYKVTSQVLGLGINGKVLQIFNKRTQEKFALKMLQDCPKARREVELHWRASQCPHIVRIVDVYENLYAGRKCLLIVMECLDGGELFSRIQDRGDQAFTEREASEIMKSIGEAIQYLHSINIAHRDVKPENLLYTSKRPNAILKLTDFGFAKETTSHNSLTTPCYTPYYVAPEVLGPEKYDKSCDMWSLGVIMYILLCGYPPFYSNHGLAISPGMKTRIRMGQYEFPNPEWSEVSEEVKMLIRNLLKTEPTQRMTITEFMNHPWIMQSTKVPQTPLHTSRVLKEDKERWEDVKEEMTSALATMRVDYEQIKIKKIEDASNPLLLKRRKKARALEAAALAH
Chain of Calcium/calmodulin-dependent protein kinase type II subunit delta (Q13557 whole entry): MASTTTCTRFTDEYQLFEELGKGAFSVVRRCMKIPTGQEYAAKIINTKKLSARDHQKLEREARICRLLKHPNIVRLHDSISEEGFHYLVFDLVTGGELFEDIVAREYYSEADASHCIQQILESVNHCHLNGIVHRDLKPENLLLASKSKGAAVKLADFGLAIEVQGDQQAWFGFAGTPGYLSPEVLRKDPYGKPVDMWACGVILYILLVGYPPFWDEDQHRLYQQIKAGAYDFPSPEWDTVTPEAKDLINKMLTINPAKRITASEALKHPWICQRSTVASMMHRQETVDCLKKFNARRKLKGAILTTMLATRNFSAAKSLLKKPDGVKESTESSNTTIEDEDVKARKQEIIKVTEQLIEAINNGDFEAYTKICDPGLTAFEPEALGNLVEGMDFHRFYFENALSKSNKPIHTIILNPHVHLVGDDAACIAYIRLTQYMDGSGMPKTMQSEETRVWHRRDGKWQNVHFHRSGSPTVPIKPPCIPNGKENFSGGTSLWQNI
Chain of Casein kinase II subunit alpha (P68400 whole entry): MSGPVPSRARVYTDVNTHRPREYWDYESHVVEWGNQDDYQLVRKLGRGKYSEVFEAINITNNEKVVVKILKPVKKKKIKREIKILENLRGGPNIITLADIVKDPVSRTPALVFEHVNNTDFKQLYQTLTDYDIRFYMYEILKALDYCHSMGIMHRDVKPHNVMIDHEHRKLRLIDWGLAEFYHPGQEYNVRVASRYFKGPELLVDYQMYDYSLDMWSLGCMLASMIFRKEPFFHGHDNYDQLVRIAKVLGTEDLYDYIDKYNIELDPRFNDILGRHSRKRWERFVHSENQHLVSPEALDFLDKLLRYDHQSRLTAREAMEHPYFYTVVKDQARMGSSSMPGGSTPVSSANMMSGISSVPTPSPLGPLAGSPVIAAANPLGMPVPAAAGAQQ
Chain of Ribosomal protein S6 kinase alpha-3 (P51812 whole entry): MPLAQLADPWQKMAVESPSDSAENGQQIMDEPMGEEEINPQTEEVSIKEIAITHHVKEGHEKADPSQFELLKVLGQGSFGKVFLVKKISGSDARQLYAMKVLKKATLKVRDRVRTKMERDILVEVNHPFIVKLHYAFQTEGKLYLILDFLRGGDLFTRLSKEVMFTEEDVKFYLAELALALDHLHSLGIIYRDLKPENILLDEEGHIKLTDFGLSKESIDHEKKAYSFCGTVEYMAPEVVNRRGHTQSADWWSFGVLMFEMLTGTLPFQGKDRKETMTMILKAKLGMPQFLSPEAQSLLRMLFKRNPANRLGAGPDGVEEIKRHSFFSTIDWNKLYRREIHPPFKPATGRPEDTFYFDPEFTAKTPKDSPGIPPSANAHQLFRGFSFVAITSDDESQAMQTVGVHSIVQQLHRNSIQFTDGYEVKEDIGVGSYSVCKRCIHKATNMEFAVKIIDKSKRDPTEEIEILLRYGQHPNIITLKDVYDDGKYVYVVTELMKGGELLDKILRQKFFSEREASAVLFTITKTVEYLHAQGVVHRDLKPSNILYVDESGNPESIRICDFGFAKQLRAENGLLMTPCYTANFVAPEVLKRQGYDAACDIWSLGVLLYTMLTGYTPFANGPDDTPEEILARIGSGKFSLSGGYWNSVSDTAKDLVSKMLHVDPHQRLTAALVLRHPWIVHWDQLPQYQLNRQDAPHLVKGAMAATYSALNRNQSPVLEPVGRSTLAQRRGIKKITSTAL
Chain of Cyclin-dependent kinase 1 (P06493 whole entry): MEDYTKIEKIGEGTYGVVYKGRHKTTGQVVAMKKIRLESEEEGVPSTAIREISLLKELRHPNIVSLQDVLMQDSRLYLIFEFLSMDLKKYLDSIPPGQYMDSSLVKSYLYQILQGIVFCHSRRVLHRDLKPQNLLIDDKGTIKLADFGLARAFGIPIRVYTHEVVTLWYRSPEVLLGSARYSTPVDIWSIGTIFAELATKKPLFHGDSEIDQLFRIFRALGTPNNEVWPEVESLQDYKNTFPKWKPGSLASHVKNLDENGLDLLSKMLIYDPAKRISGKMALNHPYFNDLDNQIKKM

Compound: CCN(CC)CCCC(C)n1c2nc(=O)[nH]c(=O)c-2nc2cc(Cl)ccc21 (configuration not stated)
AC50 [1]: 1180 nM (active) | AC50 [2]: 899 nM (active) | AC50 [3]: 8490 nM (active) | EC50 [4]: > 54700 nM (inactive)

Ki [5]: 100 nM (active) | pKi [5]: 7 | Ki [6]: 0.158 nM (active) | pKi [6]: 9.8 | Ki [7]: 158 nM (active) | pKi [7]: 6.8 | Ki [8]: > 7940 nM (inactive) | Ki [9]: 12.6 nM (active) | pKi [9]: 7.9 | Ki [10]: 20 nM (active) | pKi [10]: 7.7 | Ki [11]: > 2000 nM (inactive) | Ki [12]: 3980 nM (active) | pKi [12]: 5.4 | Ki [13]: 200 nM (active) | pKi [13]: 6.7 | Ki [14]: 398 nM (active) | pKi [14]: 6.4 | Ki [15]: > 1580 nM (inactive) | Ki [16]: 3160 nM (active) | pKi [16]: 5.5 | Ki [17]: > 794 nM (inactive) | Ki [18]: 63.1 nM (active) | pKi [18]: 7.2 | Ki [19]: > 10000 nM (inactive) | Ki [20]: 501 nM (active) | pKi [20]: 6.3 | Ki [21]: 79.4 nM (active) | pKi [21]: 7.1 | Ki [22]: > 1580 nM (inactive) | Ki [23]: 39.8 nM (active) | pKi [23]: 7.4
Compound: OC1CCC(Nc2nc(Cl)cc(-c3c[nH]c4ncccc34)n2)CC1 (configuration not stated)

Ki [24]: > 3160 nM (inactive)
Compound: COc1cccc(CNC(=O)c2cnc(-c3ccncc3)nc2)c1

Reference: ChEMBL document CHEMBL1201862, “PubChem BioAssay data set” (2004)
